Data as given in patent US7326407B2, “Amine, amide, sulphonamide and carbamate derivatives of benzalmalonic salts and photoprotective cosmetic compositions comprised thereof” (L'Oreal, priority 2003, dated 2008).
Counter-ions that a name gives are not always drawn.

Experiment: UV absorption spectrum in water
Format: physicochemical
Settings: for UV E1% / UV εmax: at λmax

| Molecule | UV λmax [nm] | UV E1% | UV εmax [L/mol/cm] |
| --- | --- | --- | --- |
| dipotassium salt of 2-(4-laurylamidobenzylidene)malonic acid [Example 5] | 292 | 422 | 14000 |
| Nc1ccc(C=C(C(=O)O)C(=O)O)cc1 [Example 1, dipiperidinium salt of 2-(4-aminobenzylidene)malonic acid] | 305 | 446 | 16800 |
| Nc1ccc(C=C(C(=O)O)C(=O)O)cc1 [Example 3, dipotassium salt of 2-(4-aminobenzylidene)malonic acid] | 306 | 496 | 14000 |
| Nc1ccc(C=C(C(=O)O)C(=O)O)cc1 [Example 2, disodium salt of 2-(4-aminobenzylidene)malonic acid] | 305 | 670 | 16800 |
| CC(=O)Nc1ccc(C=C(C(=O)O)C(=O)O)cc1 [Example 4, dipotassium salt of 2-(4-acetamidobenzylidene)malonic acid] | 292 | 498 | 16200 |
